Source: PubChem BioAssay AID2060892 (Molecular Pharmacology Branch, DTP, NCI, 2025)

Test system: HOP-62 complex spheroids with HUVEC/MSC, viability
Test: Anticancer human tumor HOP-62 cell line growth inhibition [RAS];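 also: spheroids exposed to agents for seven days before readout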;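 as to viability, T/C: 100% = DMSO vehicle control viability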
Conditions: for IC50: curve of first compound; for viability, T/C: stronger effect = lower value; active = viability on the fitted dose curve at most 10% of control; inactive = the rest
In short: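 Agents were tested in combination matrices in half-log decrements from a top concentration at or near clinical Cmax (10 microM if undetermined). Targets were multi-cell spheroids of tumour lines plus HUVEC and MSC stromal cells.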

[1] = second compound 0.000949 µM, first compound 0.00316 µM
[2] = second compound 0.000949 µM, first compound 0.01 µM
[3] = second compound 0.000949 µM, first compound 0.0316 µM
[4] = second compound 0.000949 µM, first compound 0.1 µM
[5] = second compound 0.000949 µM, first compound 0.316 µM
[6] = second compound 0.000949 µM, first compound 1 µM
[7] = second compound 0.003 µM, first compound 0.00316 µM
[8] = second compound 0.003 µM, first compound 0.01 µM
[9] = second compound 0.003 µM, first compound 0.0316 µM
[10] = second compound 0.003 µM, first compound 0.1 µM
[11] = second compound 0.003 µM, first compound 0.316 µM
[12] = second compound 0.003 µM, first compound 1 µM
[13] = second compound 0.00949 µM, first compound 0.00316 µM
[14] = second compound 0.00949 µM, first compound 0.01 µM
[15] = second compound 0.00949 µM, first compound 0.0316 µM
[16] = second compound 0.00949 µM, first compound 0.1 µM
[17] = second compound 0.00949 µM, first compound 0.316 µM
[18] = second compound 0.00949 µM, first compound 1 µM
[19] = second compound 0.03 µM, first compound 0.00316 µM
[20] = second compound 0.03 µM, first compound 0.01 µM
[21] = second compound 0.03 µM, first compound 0.0316 µM
[22] = second compound 0.03 µM, first compound 0.1 µM
[23] = second compound 0.03 µM, first compound 0.316 µM
[24] = second compound 0.03 µM, first compound 1 µM
[25] = second compound 0.0949 µM, first compound 0.00316 µM
[26] = second compound 0.0949 µM, first compound 0.01 µM
[27] = second compound 0.0949 µM, first compound 0.0316 µM
[28] = second compound 0.0949 µM, first compound 0.1 µM
[29] = second compound 0.0949 µM, first compound 0.316 µM
[30] = second compound 0.0949 µM, first compound 1 µM
[31] = second compound 0.3 µM, first compound 0.00316 µM
[32] = second compound 0.3 µM, first compound 0.01 µM
[33] = second compound 0.3 µM, first compound 0.0316 µM
[34] = second compound 0.3 µM, first compound 0.1 µM
[35] = second compound 0.3 µM, first compound 0.316 µM
[36] = second compound 0.3 µM, first compound 1 µM
[37] = second compound 0.0316 µM, first compound 0.0316 µM
[38] = second compound 0.0316 µM, first compound 0.1 µM
[39] = second compound 0.0316 µM, first compound 0.316 µM
[40] = second compound 0.0316 µM, first compound 1 µM
[41] = second compound 0.1 µM, first compound 0.0316 µM
[42] = second compound 0.1 µM, first compound 0.1 µM
[43] = second compound 0.1 µM, first compound 0.316 µM
[44] = second compound 0.1 µM, first compound 1 µM
[45] = second compound 0.316 µM, first compound 0.0316 µM
[46] = second compound 0.316 µM, first compound 0.1 µM
[47] = second compound 0.316 µM, first compound 0.316 µM
[48] = second compound 0.316 µM, first compound 1 µM
[49] = second compound 1 µM, first compound 0.0316 µM
[50] = second compound 1 µM, first compound 0.1 µM
[51] = second compound 1 µM, first compound 0.316 µM
[52] = second compound 1 µM, first compound 1 µM
[53] = second compound 3.16 µM, first compound 0.0316 µM
[54] = second compound 3.16 µM, first compound 0.1 µM
[55] = second compound 3.16 µM, first compound 0.316 µM
[56] = second compound 3.16 µM, first compound 1 µM
[57] = second compound 10 µM, first compound 0.0316 µM
[58] = second compound 10 µM, first compound 0.1 µM
[59] = second compound 10 µM, first compound 0.316 µM
[60] = second compound 10 µM, first compound 1 µM

C=CC(=O)Nc1cc(Nc2nccc(-c3cn(C)c4ccccc34)n2)c(OC)cc1N(C)CCN(C)C + CCn1c(-c2cccnc2C(C)OC)c2c3cc(ccc31)N1CCOC(CC(NC(=O)C(C(C)C)N(C)C(=O)C3(F)CCN(C(=O)C#CC(C)(C)N(C)C)CC3)C(=O)N3CCCC(N3)C(=O)OCC(C)(C)C2)C1
inactive: viability, T/C [1] 100% | viability, T/C [2] 107% | viability, T/C [3] 83.9% | viability, T/C [4] 112% | viability, T/C [5] 100% | viability, T/C [6] 54% | viability, T/C [7] 94.1% | viability, T/C [8] 95.4% | viability, T/C [9] 94.1% | viability, T/C [10] 105% | viability, T/C [11] 103% | viability, T/C [12] 71.7% | viability, T/C [13] 92.3% | viability, T/C [14] 84.2% | viability, T/C [15] 85.3% | viability, T/C [16] 90.4% | viability, T/C [17] 73.4% | viability, T/C [18] 54.6% | viability, T/C [19] 97.5% | viability, T/C [20] 90.5% | viability, T/C [21] 83.4% | viability, T/C [22] 78.6% | viability, T/C [23] 60.1% | viability, T/C [24] 66.3% | viability, T/C [25] 96.7% | viability, T/C [26] 80% | viability, T/C [27] 84.2% | viability, T/C [28] 67.3% | viability, T/C [29] 64.3% | viability, T/C [30] 58.6% | viability, T/C [31] 84% | viability, T/C [32] 84% | viability, T/C [33] 73.5% | viability, T/C [34] 62.1% | viability, T/C [35] 60.2% | viability, T/C [36] 54.6%
> 1000 nM: IC50 (second compound 0.000949 µM) | IC50 (second compound 0.003 µM) | IC50 (second compound 0.00949 µM) | IC50 (second compound 0.03 µM) | IC50 (second compound 0.0949 µM) | IC50 (second compound 0.3 µM)

CC(C)NCC(C(=O)N1CCN(c2ncnc3c2C(C)CC3O)CC1)c1ccc(Cl)cc1 (stereo not drawn) + C#Cc1c(F)ccc2cc(O)cc(-c3ncc4c(N5CC6CCC(C5)N6)nc(OCC56CCCN5CC(F)C6)nc4c3F)c12
1720 nM: IC50 (second compound 1 µM)
676 nM: IC50 (second compound 3.16 µM)
inactive: viability, T/C [37] 105% | viability, T/C [38] 113% | viability, T/C [39] 92.2% | viability, T/C [40] 71.2% | viability, T/C (second compound 0.0316 µM, first compound 3.16 µM) 44.6% | viability, T/C (second compound 0.0316 µM, first compound 10 µM) 28.3% | viability, T/C [41] 112% | viability, T/C [42] 105% | viability, T/C [43] 99.2% | viability, T/C [44] 70% | viability, T/C (second compound 0.1 µM, first compound 3.16 µM) 49.8% | viability, T/C (second compound 0.1 µM, first compound 10 µM) 28.3% | viability, T/C [45] 105% | viability, T/C [46] 104% | viability, T/C [47] 96.3% | viability, T/C [48] 73.1% | viability, T/C (second compound 0.316 µM, first compound 3.16 µM) 47.5% | viability, T/C (second compound 0.316 µM, first compound 10 µM) 27% | viability, T/C [49] 108% | viability, T/C [50] 100% | viability, T/C [51] 86.5% | viability, T/C [52] 59.9% | viability, T/C (second compound 1 µM, first compound 3.16 µM) 38.5% | viability, T/C (second compound 1 µM, first compound 10 µM) 23.5% | viability, T/C [53] 72.2% | viability, T/C [54] 75% | viability, T/C [55] 63.9% | viability, T/C [56] 41.6% | viability, T/C (second compound 3.16 µM, first compound 3.16 µM) 26.1% | viability, T/C (second compound 3.16 µM, first compound 10 µM) 16.1% | viability, T/C [57] 54.3% | viability, T/C [58] 47% | viability, T/C [59] 35.2% | viability, T/C [60] 23% | viability, T/C (second compound 10 µM, first compound 3.16 µM) 13.7%
2730 nM: IC50 (second compound 0.316 µM)
62.1 nM: IC50 (second compound 10 µM)
active: viability, T/C (second compound 10 µM, first compound 10 µM) 9.15%
2440 nM: IC50 (second compound 0.0316 µM)
2810 nM: IC50 (second compound 0.1 µM)

CCN1CCN(Cc2ccc(Nc3ncc(F)c(-c4cc(F)c5nc(C)n(C(C)C)c5c4)n3)nc2)CC1 + CCn1c(-c2cc(N3CCN(C)CC3)cnc2C(C)OC)c2c3cc(ccc31)-c1csc(n1)CC(NC(=O)C1CC1C)C(=O)N1CCCC(N1)C(=O)OCC(C)(C)C2
inactive: viability, T/C [1] 121% | viability, T/C [2] 117% | viability, T/C [3] 85.5% | viability, T/C [4] 109% | viability, T/C [5] 114% | viability, T/C [6] 87.8% | viability, T/C [7] 97.9% | viability, T/C [8] 81.7% | viability, T/C [9] 78.2% | viability, T/C [10] 90.4% | viability, T/C [11] 104% | viability, T/C [12] 62.6% | viability, T/C [13] 70.7% | viability, T/C [14] 57.9% | viability, T/C [15] 68.2% | viability, T/C [16] 74.3% | viability, T/C [17] 57.3% | viability, T/C [18] 50.8% | viability, T/C [19] 52.8% | viability, T/C [20] 52.4% | viability, T/C [21] 51.9% | viability, T/C [22] 49% | viability, T/C [23] 32.6% | viability, T/C [24] 50.4% | viability, T/C [25] 38.4% | viability, T/C [26] 42.8% | viability, T/C [27] 39.2% | viability, T/C [28] 32.4% | viability, T/C [29] 32.6% | viability, T/C [30] 47% | viability, T/C [31] 36.6% | viability, T/C [32] 37.1% | viability, T/C [33] 35.2% | viability, T/C [34] 33.4% | viability, T/C [35] 40.7% | viability, T/C [36] 45.3%
70.4 nM: IC50 (second compound 0.03 µM)
> 1000 nM: IC50 (second compound 0.000949 µM) | IC50 (second compound 0.003 µM) | IC50 (second compound 0.00949 µM)
< 3.16 nM: IC50 (second compound 0.0949 µM) | IC50 (second compound 0.3 µM)

Nc1ccn(C2OC(CO)C(O)C2(F)F)c(=O)n1 (stereo not drawn) + C#Cc1c(F)ccc2cc(O)cc(-c3ncc4c(N5CC6CCC(C5)N6)nc(OCC56CCCN5CC(F)C6)nc4c3F)c12
5.77 nM: IC50 (second compound 0.1 µM)
active: viability, T/C [37] 5.94% | viability, T/C [38] 5.61% | viability, T/C [39] 4.99% | viability, T/C [40] 6.52% | viability, T/C [41] 8.15% | viability, T/C [42] 4.9% | viability, T/C [43] 5.5% | viability, T/C [44] 6.42% | viability, T/C [45] 4.88% | viability, T/C [46] 4.68% | viability, T/C [47] 4.42% | viability, T/C [48] 4.04% | viability, T/C (second compound 1 µM, first compound 0.01 µM) 9.09% | viability, T/C [49] 4.77% | viability, T/C [50] 4.48% | viability, T/C [51] 3.43% | viability, T/C [52] 3.47% | viability, T/C [53] 5.06% | viability, T/C [54] 4.31% | viability, T/C [55] 5.01% | viability, T/C [56] 4.23% | viability, T/C [57] 8.09% | viability, T/C [58] 6.92% | viability, T/C [59] 8.08% | viability, T/C [60] 6.83%
6.38 nM: IC50 (second compound 0.0316 µM)
< 3.16 nM: IC50 (second compound 10 µM)
5.94 nM: IC50 (second compound 0.316 µM)
5.32 nM: IC50 (second compound 1 µM)
inactive: viability, T/C (second compound 0.0316 µM, first compound 0.00316 µM) 107% | viability, T/C (second compound 0.0316 µM, first compound 0.01 µM) 13.4% | viability, T/C (second compound 0.1 µM, first compound 0.00316 µM) 92.4% | viability, T/C (second compound 0.1 µM, first compound 0.01 µM) 11.2% | viability, T/C (second compound 0.316 µM, first compound 0.00316 µM) 97.4% | viability, T/C (second compound 0.316 µM, first compound 0.01 µM) 10.9% | viability, T/C (second compound 1 µM, first compound 0.00316 µM) 83.7% | viability, T/C (second compound 3.16 µM, first compound 0.00316 µM) 67.8% | viability, T/C (second compound 3.16 µM, first compound 0.01 µM) 12.5% | viability, T/C (second compound 10 µM, first compound 0.00316 µM) 39.5% | viability, T/C (second compound 10 µM, first compound 0.01 µM) 12.1%
4.58 nM: IC50 (second compound 3.16 µM)
